# Results from US11834698B2, “Process for determining enzyme activity in a cell by activity-based reporter gene technology (ABRGT)” (INDIAN INSTITUTE OF SCIENCE EDUCATION AND RESEARCH, priority 2018, dated 2023).
# Peptide text beside a SMILES is read from it. * marks the point of attachment. Cbz = O=C(OCc1ccccc1)*; CH2F = FC*
# Key:
# caspase-7 GFPspark = target: T1, caspase-7 GFPspark (Homo sapiens, UniProt P55210); test: AbRGT FRET imaging / acceptor photobleaching, caspase-7 GFPspark in HEK-293 cells; assay type: cell-based
# T1 construct: host or cells: MCF-7, HEK-293
# T1 sequence (P55210 24-198 limits assumed): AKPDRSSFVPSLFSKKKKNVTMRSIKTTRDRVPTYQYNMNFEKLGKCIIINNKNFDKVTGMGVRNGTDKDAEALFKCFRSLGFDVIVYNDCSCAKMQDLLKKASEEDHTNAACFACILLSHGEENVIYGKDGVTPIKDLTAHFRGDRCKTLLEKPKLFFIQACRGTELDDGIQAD
# T1 sequence (P55210 207-303 limits assumed): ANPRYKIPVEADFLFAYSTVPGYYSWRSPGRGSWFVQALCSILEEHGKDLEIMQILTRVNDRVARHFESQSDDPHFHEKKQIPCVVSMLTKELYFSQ
# Procedure: FIGS. 14A and 14B depict specific detection of caspase-7 GFPspark in HEK-293 cells. Caspase-7 GFPspark (1 μg) transfected HEK-293 cells were treated with STS (1 μM) for 10 h and labelled with the probe 1 (1 μM) for 2 h. […] The acceptor photobleaching experiment was performed to confirm the FRET signal as described previously. Bar graph representing a rise in GFP intensity in ROI after rhodamine photobleaching was 87 a.u. as compared to the unbleached background, i.e., 13 a.u. FRET efficiency was calculated to be 33±2%.
# (§1) Plasmids and transient transfection: GFPspark tagged plasmids; caspase-3 GFPspark tag (Cat: HG10050-ACG), caspase-7 GFPspark tag (HG10049-ACG), caspase-8 GFPspark (HG10078-ACG), caspase-9 GFPspark (HG11151-ACG) and cathepsin B GFPspark (HG10483-ACG) were procured from Sino Biological. For transfection, cells were seeded in a 6-well plate at a density of 0.4 million cells/well. […] 24 h post-transfection, cells were visualized under the GFP filter for GFPspark expression under fluorescence microscope at 10× magnification.
# (§2) Labelling of active caspases in apoptotic cells with FABP: After 24 h of transfection, cells were treated with STS (1 μM) drug or TRAIL (1 μg/ml) for apoptotic induction and incubated for 2, 4, 6 and 8 h at 37° C. in a humidified atmosphere of 5% CO2/95% air. […] Slides were then imaged for GFP, FRET and rhodamine fluorescence signals under confocal microscopy. […]
# (§3) Fluorescence imaging studies, FRET procedure: Images were collected on Zeiss LSM710 confocal microscope with 25 mW argon laser using Zen10 software. […] Images were collected in the three channels; GFP channel, argon laser tuned at 488 nm with 2% laser intensity and fluorescence emission was collected in emission range of 490-550 nm; rhodamine channel, argon laser tuned to 561 nm laser with 2% laser intensity and fluorescence emission was collected in range 550-650 nm and FRET channel with excitation laser of GFPSPARK channel and emission range of rhodamine channel. […]
# caspase-9 GFPspark = target: T2, caspase-9 GFPspark (Homo sapiens, UniProt P55211); test: AbRGT FRET imaging / acceptor photobleaching, caspase-9 GFPspark in HEK-293 cells; assay type: cell-based
# T2 construct: host or cells: MCF-7, HEK-293
# T2 sequence (P55211 1-416): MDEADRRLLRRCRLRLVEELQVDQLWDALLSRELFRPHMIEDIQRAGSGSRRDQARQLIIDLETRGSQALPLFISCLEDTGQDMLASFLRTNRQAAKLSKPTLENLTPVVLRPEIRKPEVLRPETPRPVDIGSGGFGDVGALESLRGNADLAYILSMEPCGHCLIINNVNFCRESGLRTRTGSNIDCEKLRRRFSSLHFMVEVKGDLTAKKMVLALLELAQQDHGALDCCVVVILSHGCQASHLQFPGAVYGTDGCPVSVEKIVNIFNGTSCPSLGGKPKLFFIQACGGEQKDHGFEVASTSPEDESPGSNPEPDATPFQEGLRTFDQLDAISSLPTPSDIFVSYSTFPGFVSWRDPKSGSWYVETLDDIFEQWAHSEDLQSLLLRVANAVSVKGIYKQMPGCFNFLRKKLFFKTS
# Procedure: FIGS. 17A and 17B depict specific detection of caspase-9 GFPspark in HEK-293 cells. Casp-9 GFPspark (1 μg) transfected HEK-293 cells were treated with STS (1 μM) for 4 h and labelled with the probe 1 (1 μM) for 2 h. […] The acceptor photobleaching was performed to confirm the FRET signal as described previously. The bar graph representing the rise in GFP intensity in ROI after rhodamine photobleaching was 75 a.u. as compared to the unbleached background, i.e., 10 a.u. FRET efficiency was calculated to be 35±2%.
# as §1, §2, §3
# [1] = HEK-293, STS 1 μM 10 h, probe 1 μM 2 h
# [2] = HEK-293, STS 1 μM 4 h, probe 1 μM 2 h
"effect of inhibitor on FRET signal (caspase-7 GFPspark; HEK-293, inhibitor 50 μM pre-treatment, STS 10 h)","effect of inhibitor on FRET signal (caspase-9 GFPspark; HEK-293, inhibitor 50 μM pre-treatment, STS 4 h)",Compound,calculated FRET efficiency (caspase-7 GFPspark; [1]) [%],rise in GFP intensity in ROI after rhodamine photobleaching (caspase-7 GFPspark; [1]) [a.u.],calculated FRET efficiency (caspase-9 GFPspark; [2]) [%],rise in GFP intensity in ROI after rhodamine photobleaching (caspase-9 GFPspark; [2]) [a.u.]
abolished,abolished,COC(=O)C[C@H](NC(=O)[C@H](C)NC(=O)[C@@H](NC(=O)OCc1ccccc1)C(C)C)C(=O)CF [Z-VAD-FMK] (Cbz-Val-Ala-Asp(OMe)-CH2F),–,–,–,–
–,–,Rhodamine-VAD-fluoromethyl ketone [probe 1],33±2,87,35±2,75
